The test system of this test is MIA PaCa-2 cells. Kind of test: MIA PaCa2 cell-based assay (1,536-well high-content imaging ALDEFLUOR assay). Also noted: species or system human. Conditions: Homo sapiens, 0.5 h, ALDEFLUOR BAAA substrate 500 nM, 30 minutes. Here is the method:
Example 359. MIA PaCa2 Cell-Based Assay (In Vitro Assay)
1,536-Well High-Content Imaging ALDEFLUOR Assay
The ALDEFLUOR™ kit was purchased from […] Technologies (Vancouver, Canada; #01700). MIA PaCa-2 cells (5 μL; 1,000 cells/well) were dispensed into black, optical quality (cyclic olefin copolymer) clear bottom, medium binding TC treated 1,536-well plates (Aurora Microplates, Whitefish Mont.) using a Multidrop Combi dispenser (ThermoFisher) and incubated overnight (37° C., 5% CO2, 85% RH). Media (RPMI 1640 (Life Technologies, Carlsbad, Calif.), supplemented with 2 mM L-Glutamine (Life Technologies), 10% HyClone™ fetal bovine serum (FBS, GE Healthcare, Piscataway, N.J.) and 100 U/mL penicillin and 100 μg/mL streptomycin (Life Technologies)) was subsequently removed by centrifuging plates upside down using a plate adaptor to collect media. A solution of BAAA substrate ([…] Technologies) and Hoechst 33342 (ThermoFisher, final concentrations of 500 nM and 0.5 nM, respectively) in ALDEFLUOR™ buffer ([…] Technologies #01700) was dispensed onto cells using a Multidrop Combi followed by immediate transfer (23 nL) of compound or control solutions using a Wako Pin-tool (final percentage of DMSO in the cell plates was 0.5%). Unless otherwise noted, all compounds were assayed as 16-point dilutions spanning a final concentration range of 1.4 nM to 47.8 μM. The neutral and positive assay controls were DMSO and DEAB (4.6 μM), respectively. Cells were incubated for 30 minutes or the indicated amount of time at 37° C., 5% CO2, 85% RH to allow the conversion of BAAA into BAA. Supernatant was subsequently removed by centrifugation as described above, then ALDEFLUOR™ buffer (3 μl) was dispensed by Multidrop Combi before imaging on an IN Cell 2200 (GE Healthcare).
The above assay was modified for an online robotic screening system. After cell plating and overnight incubation, 4 μL of media were removed using a 64-tip metal aspirator head on a Wako aspirator station, leaving 1 μL remaining in the well, followed by a 4 μL dispense of BAAA and Hoechst 33342 in ALDEFLUOR™ buffer, for a final concentration of 500 nM and 0.5 nM, respectively Immediately following the dispense, 23 nL of compound or control solutions were transferred using a Wako Pin-tool. Cells were incubated for 30 minutes at 37° C., 5% CO2, 85% RH, followed by a 4 μL media removal using the Wako aspirator, and a subsequent 3 μL addition of ALDEFLUOR™ buffer. Plates were then immediately read on the IN Cell 2200 as described below.
Image Acquisition and Analysis
For images captured on the IN Cell 2200 widefield automated microscope, a 10×0.45 NA Plan Apo objective lens was used to capture the entire well of the 1,536-well plate using standard DAPI (390/18×, 432/48 m) and FITC (475/28×, 525/48 m) filter sets at 50 msec and 100 msec exposures, respectively. Images were subsequently analyzed using IN Cell Investigator v1.6.2 analysis software's canned Multi-Target Analysis algorithm (GE Healthcare). Hoechst stained nuclei were identified using top hat segmentation with a minimum area of 75 μm^2 and sensitivity of 93. BAA-retaining cells captured via FITC channel, were identified using multiscale top hat segmentation with a minimum area of 100 μm^2 and a sensitivity setting of 16. […] Data were plotted using GraphPad Prism software (GraphPad, San Diego, Calif.).

pIC50: −log10 of the molar value.

For the molecule `COc1ccc2c(N3CCC4(CC3)OCCO4)c(C(=O)N3CCN(C(=O)C4CC4)CC3)cnc2c1` [Example 47, (4-(cyclopropanecarbonyl)piperazin-1-yl)(7-methoxy-4-(1,4-dioxa-8-azaspiro[4.5]decan-8-yl)quinolin-3-yl)methanone], the negative logarithm of the IC50 (pIC50) (as a rule, the negative decadic logarithm of the IC50, by convention in mol/L) was 5.00 to 6.00. As for `COc1cc2ncc(C(=O)N3CCN(C(=O)C4CC4)CC3)c(N3CCC4(CC3)OCCO4)c2cc1OC` [Example 48, (4-(cyclopropanecarbonyl)piperazin-1-yl)(6,7-dimethoxy-4-(1,4-dioxa-8-azaspiro[4.5]decan-8-yl)quinolin-3-yl)methanone], the negative-log IC50 (pIC50) is 5.00 to 6.00. Molecule `COc1ccc2ncc(CN3CCN(C(=O)C4CC4)CC3)c(N3CCC4(CC3)OCCO4)c2c1` [Example 57, Cyclopropyl(4-((6-methoxy-4-(1,4-dioxa-8-azaspiro[4.5]decan-8-yl)quinolin-3-yl)methyl)piperazin-1-yl)methanone] had a pIC50 of less than 5.00.

The molecule `O=C(c1cnc2ccc(F)cc2c1N1CCC2(CC1)CC2)N1CCN(C(=O)C2CC2)CC1` [Example 59, (4-(cyclopropanecarbonyl)piperazin-1-yl)(6-fluoro-4-(6-azaspiro[2.5]octan-6-yl)quinolin-3-yl)methanone] showed a pIC50 of less than 5.00. As to `O=C(c1cnc2ccc(F)cc2c1N1CCC2(CCCC2)CC1)N1CCN(C(=O)C2CC2)CC1` [Example 62, (4-(cyclopropanecarbonyl)piperazin-1-yl)(6-fluoro-4-(8-azaspiro[4.5]decan-8-yl)quinolin-3-yl)methanone], the pIC50 is less than 5.00.

The molecule `O=C(c1cnc2ccc(F)cc2c1N1CCC(F)(F)CC1)N1CCN(C(=O)C2CC2)CC1` [Example 63, (4-(cyclopropanecarbonyl)piperazin-1-yl)(4-(4,4-difluoropiperidin-1-yl)-6-fluoroquinolin-3-yl)methanone] showed a pIC50 of less than 5.00. Take `CC1(C#N)CCN(c2c(C(=O)N3CCN(C(=O)C4CC4)CC3)cnc3ccc(F)cc23)CC1` [Example 64, 1-(3-(4-(cyclopropanecarbonyl)piperazine-1-carbonyl)-6-fluoroquinolin-4-yl)-4-methylpiperidine-4-carbonitrile]: the negative-log IC50 (pIC50) was 5.00 to 6.00. For `CC1(C)CCN(c2c(C(=O)N3CCN(C(=O)C4CC4)CC3)cnc3ccc(F)cc23)CC1` [Example 65, (4-(cyclopropanecarbonyl)piperazin-1-yl)(4-(4,4-dimethylpiperidin-1-yl)-6-fluoroquinolin-3-yl)methanone], the negative logarithm of the IC50 (pIC50) is 5.00 to 6.00.

Turning to `O=C(c1cnc2ccc(F)cc2c1N1CCC2(CCCO2)CC1)N1CCN(C(=O)C2CC2)CC1` [Example 66, (4-(cyclopropanecarbonyl)piperazin-1-yl)(6-fluoro-4-(1-oxa-8-azaspiro[4.5]decan-8-yl)quinolin-3-yl)methanone], the pIC50 is 5.00 to 6.00.

Turning to `COc1ccc2ncc(C(=O)N3CCN(C(=O)C4CC4)CC3)c(N3CCC(=O)CC3)c2c1` [Example 67, 1-(3-(4-(cyclopropanecareonyl)piperazine-1-carbonyl)-6-methoxyquinolin-4-yl)piperidin-4-one], the negative logarithm of the IC50 (pIC50) was less than 5.00. The value for `O=C(c1cnc2ccc(F)cc2c1N1CCCCCC1)N1CCN(C(=O)C2CC2)CC1` [Example 71, (4-(azepan-1-yl)-6-fluoroquinolin-3-yl)(4-(cyclopropanecarbonyl)piperazin-1-yl)methanone] was 5.00 to 6.00; that for `O=C(c1cnc2ccc(F)cc2c1N1CCC(c2ccccc2)CC1)N1CCN(C(=O)C2CC2)CC1` [Example 72, (4-(cyclopropanecarbonyl)piperazin-1-yl)(6-fluoro-4-(4-phenylpiperidin-1-yl)quinolin-3-yl)methanone] was less than 5.00. The value for `Cc1cc(F)cc2c(N3CCC4(CC3)OCCO4)c(C(=O)N3CCN(C(=O)C4CC4)CC3)cnc12` [Example 73, (4-(cyclopropanecarbonyl)piperazin-1-yl)(6-fluoro-8-methyl-4-(1,4-dioxa-8-azaspiro[4.5]decan-8-yl)quinolin-3-yl)methanone] was 5.00 to 6.00; that for `O=C(c1cnc2ccc(F)cc2c1N1CCC2(CCCCC2)CC1)N1CCN(C(=O)C2CC2)CC1` [Example 75, (4-(cyclopropanecarbonyl)piperazin-1-yl)(6-fluoro-4-(3-azaspiro[5.5]undecan-3-yl)quinolin-3-yl)methanone] was 5.00 to 6.00. In the case of `O=C(c1cnc2ccc(F)cc2c1N1CCC(F)CC1)N1CCN(C(=O)C2CC2)CC1` [Example 76, (4-(cyclopropanecarbonyl)piperazin-1-yl)(6-fluoro-4-(4-fluoropiperidin-1-yl)quinolin-3-yl)methanone], the pIC50 was less than 5.00. In turn, `CC1(C)CC=C(c2c(C(=O)N3CCN(C(=O)C4CC4)CC3)cnc3ccc(F)cc23)CC1` [Example 77, (4-(cyclopropanecarbonyl)piperazin-1-yl)(4-(4,4-dimethylcyclohex-1-en-1-yl)-6-fluoroquinolin-3-yl)methanone] had a pIC50 greater than 6.30. On to `O=C(c1cnc2c(F)cc(F)cc2c1N1CCC2(CC1)OCCO2)N1CCN(C(=O)C2CC2)CC1` [Example 78, (4-(cyclopropanecarbonyl)piperazin-1-yl)(6,8-difluoro-4-(1,4-dioxa-8-azaspiro[4.5]decan-8-yl)quinolin-3-yl)methanone], for which the pIC50 was 5.00 to 6.00. As to `O=C(c1cnc2ccc(F)cc2c1N1CCC2(CCCCC2)C1)N1CCN(C(=O)C2CC2)CC1` [Example 79, (4-(cyclopropanecarbonyl)piperazin-1-yl)(6-fluoro-4-(2-azaspiro[4.5]decan-2-yl)quinolin-3-yl)methanone], the negative logarithm of the IC50 (pIC50) was less than 5.00.

In the case of `O=C(c1cnc2ccc(F)cc2c1N1CC2(CCCCC2)C1)N1CCN(C(=O)C2CC2)CC1` [Example 80, (4-(cyclopropanecarbonyl)piperazin-1-yl)(6-fluoro-4-(2-azaspiro[3.5]nonan-2-yl)quinolin-3-yl)methanone], the negative logarithm of the IC50 (pIC50) was less than 5.00. In turn, `CCC1(CC)CCN(c2c(C(=O)N3CCN(C(=O)C4CC4)CC3)cnc3ccc(F)cc23)CC1` [Example 81, (4-(cyclopropanecarbonyl)piperazin-1-yl)(4-(4,4-diethylpiperidin-1-yl)-6-fluoroquinolin-3-yl)methanone] had a pIC50 of 5.00 to 6.00. `O=C(c1cnc2ccc(F)cc2c1N1CC2CCC(C2)C1)N1CCN(C(=O)C2CC2)CC1` [Example 82, (4-(3-azabicyclo[3.2.1]octan-3-yl)-6-fluoroquinolin-3-yl)(4-(cyclopropanecarbonyl)piperazin-1-yl)methanone] showed a negative-log IC50 (pIC50) of less than 5.00. In turn, `O=C(c1cnc2ccc(F)cc2c1N1C[C@H]2CCCC[C@H]2C1)N1CCN(C(=O)C2CC2)CC1` [Example 83, (4-(cyclopropanecarbonyl)piperazin-1-yl)(6-fluoro-4-((3aR*,7aS*)-hexahydro-1H-isoindol-2(3H)-yl)quinolin-3-yl)methanone] showed a negative-log IC50 (pIC50) of less than 5.00. Regarding `CC(C)(C)c1ccc(-c2c(C(=O)N3CCN(C(=O)C4CC4)CC3)cnc3ccc(F)cc23)cc1` [Example 84, (4-(4-(tert-butyl)phenyl)-6-fluoroquinolin-3-yl)(4-(cyclopropanecarbonyl)piperazin-1-yl)methanone], the pIC50 was greater than 6.30. In turn, `CC1(C#N)CCN(c2c(C(=O)N3CCN(S(=O)(=O)C4CC4)CC3)cnc3ccc(F)cc23)CC1` [Example 85, 1-(3-(4-(cyclopropylsulfonyl)piperazine-1-carbonyl)-6-fluoroquinolin-4-yl)-4-methylpiperidine-4-carbonitrile] showed a negative-log IC50 (pIC50) of less than 5.00. For the molecule `CC1(C#N)CCN(c2c(C(=O)N3CCN(S(C)(=O)=O)CC3)cnc3ccc(F)cc23)CC1` [Example 86, 1-(6-fluoro-3-(4-(methylsulfonyl)piperazine-1-carbonyl)quinolin-4-yl)-4-methylpiperidine-4-carbonitrile], the pIC50 was 5.00 to 6.00.

Source of the values: patent US11795177B2, “Substituted quinoline analogs as aldehyde dehydrogenase 1A1 (ALDH1A1) inhibitors” (THE UNITED STATES OF AMERICA, AS REPRESENTED BY THE …, priority 2017, dated 2023).
